Assays:
MCF7 breast cancer cells = assay: MTT assay of cell proliferation; format: cell-based; settings: relative to no treatment
Method: The MTT Assay of Cell Proliferation: The MTT assay provides a measurement of cell proliferation (FIG. 5) in the MCF7 breast cancer cells. […] Experiments were conducted using three independent replicates and evaluated using a 1-way ANOVA. Relative to Controls at 24-hours (FIG. 5A), there was between a 6.9% and 11.94% decrease in cell number (**=p<0.0034, ***=p<0.0007, and ****=p<0.0001). Relative to Control cultures at 72-hours (FIG. 5B), there was between a 15.4% and 50.2% decrease in cell number (****=p<0.0001).
Combination Therapy Assessed Using the MTT Assay of Cell Proliferation: The MTT assay provides a measurement of cell proliferation (FIG. 5) in the MCF7 breast cancer cells. […] Control cultures were treated with 50-nM of Tomoxifen or 10-nM of Abemaciclib.

Phosphoglycerate kinase = settings: substrate Mg-ATP; cited from earlier work
[1] = Solubility in heated non-polar solvents and fatty acid solutions; format: physicochemical; settings: heated to at least 90° C.; for solubility in fatty acid solutions: oleic acid, linoleic acid, vegetable oil, olive oil, canola oil, castor oil; for solubility in non-polar solvents: toluene, xylene, n-octane, cyclohexane, hexane, chloroform, acetonitrile, ether
TRPA1 channels = TRPA1 channels (Homo sapiens, UniProt O75762); settings: 20-μM Ca^2+; cited from earlier work
Chain of TRPA1 channels (O75762 whole entry): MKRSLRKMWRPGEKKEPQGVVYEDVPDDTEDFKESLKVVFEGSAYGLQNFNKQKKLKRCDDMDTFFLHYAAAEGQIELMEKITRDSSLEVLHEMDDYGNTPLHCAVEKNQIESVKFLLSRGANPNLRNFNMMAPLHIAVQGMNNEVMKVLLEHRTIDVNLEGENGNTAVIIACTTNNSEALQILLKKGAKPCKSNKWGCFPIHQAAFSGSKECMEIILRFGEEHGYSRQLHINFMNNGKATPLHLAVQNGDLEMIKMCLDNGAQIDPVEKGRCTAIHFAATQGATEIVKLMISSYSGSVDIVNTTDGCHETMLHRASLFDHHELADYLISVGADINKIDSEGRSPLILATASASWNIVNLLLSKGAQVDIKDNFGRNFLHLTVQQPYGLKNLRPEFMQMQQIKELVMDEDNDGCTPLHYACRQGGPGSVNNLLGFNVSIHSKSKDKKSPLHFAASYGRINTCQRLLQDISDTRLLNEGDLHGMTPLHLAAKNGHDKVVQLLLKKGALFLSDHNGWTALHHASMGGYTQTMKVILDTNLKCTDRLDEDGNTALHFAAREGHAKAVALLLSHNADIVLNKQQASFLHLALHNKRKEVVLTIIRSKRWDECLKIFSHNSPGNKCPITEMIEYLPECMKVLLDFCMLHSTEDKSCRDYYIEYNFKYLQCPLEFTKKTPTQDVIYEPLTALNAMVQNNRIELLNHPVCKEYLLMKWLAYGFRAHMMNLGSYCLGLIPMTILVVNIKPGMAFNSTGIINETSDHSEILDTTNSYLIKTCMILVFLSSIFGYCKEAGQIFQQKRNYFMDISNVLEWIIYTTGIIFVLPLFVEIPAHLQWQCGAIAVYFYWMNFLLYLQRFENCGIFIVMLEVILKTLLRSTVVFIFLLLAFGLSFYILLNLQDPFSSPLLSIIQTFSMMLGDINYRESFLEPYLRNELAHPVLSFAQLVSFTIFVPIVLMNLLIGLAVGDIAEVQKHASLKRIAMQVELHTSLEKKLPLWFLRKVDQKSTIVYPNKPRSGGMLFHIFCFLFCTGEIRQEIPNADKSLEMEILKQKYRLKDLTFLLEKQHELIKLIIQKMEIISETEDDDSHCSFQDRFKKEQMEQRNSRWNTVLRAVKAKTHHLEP

SMILES: CC/C(=C(\c1ccccc1)c1ccc(OCCN(C)C)cc1)c1ccccc1 [Tamoxifen]
- decrease in cell number (MCF7 breast cancer cells; MCF7, 24-hours, 50-nM Tamoxifen): 54%
- decrease in cell number (MCF7 breast cancer cells; MCF7, 72-hours, 50-nM Tamoxifen): 80.3%

SMILES: CCN1CCN(Cc2ccc(Nc3ncc(F)c(-c4cc(F)c5nc(C)n(C(C)C)c5c4)n3)nc2)CC1 [Abemaciclib]
- decrease in cell number (MCF7 breast cancer cells; MCF7, 24-hours, 10-nM Abemaciclib): 10.2%
- decrease in cell number (MCF7 breast cancer cells; MCF7, 72-hours, 10-nM Abemaciclib): 26.4%

SMILES: Nc1ncnc2c1ncn2[C@@H]1O[C@H](COP(=O)(O)OP(=O)([O-])OP(=O)([O-])O)[C@@H](O)[C@H]1O.[Mg+2] [Mg-ATP]
- K-value (Phosphoglycerate kinase): 0.073 mM

SMILES: CCCCCCCCCCCC(=O)O [lanthanum (III) tridodeconoate]
- solubility in fatty acid solutions [1]: soluble
- solubility in non-polar solvents [1]: soluble

SMILES: CCCCCCCCC(OC(C)=O)C(CCCCCCCC(=O)O)OC(C)=O (stereo not shown) [lanthanum (III) tri 9,10-diacetoxy octadecanoate]
- solubility in fatty acid solutions [1]: soluble
- solubility in non-polar solvents [1]: soluble

SMILES: [La] [lanthanum]
- IC50 (TRPA1 channels): 54 µM
